Laboratory results: ChEMBL document CHEMBL1201862, “PubChem BioAssay data set” (2004)
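Method: 48-hour compound exposure of cells in 96-well plates, five concentrations, linear interpolation of endpoints. GI50: concentration for 50% inhibition of growth.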 Activity calls are given as the source filed them. Cut-off read from the data, not from the text of the source: active = GI50 up to about 1.1 µM and inactive = higher.

Legend:
Experiment in all cases: growth of human tumour cells (NCI), 48 h
[1] = test system: A498
[2] = test system: COLO 205
[3] = test system: HCT-116
[4] = test system: HCT-15
[5] = test system: IGROV-1
[6] = test system: KM12
[7] = test system: M14
[8] = test system: Malme-3M
[9] = test system: OVCAR-8
[10] = test system: RXF 393
[11] = test system: SK-MEL-2
[12] = test system: SK-OV-3
[13] = test system: SNB-19
[14] = test system: SNB-75
[15] = test system: SW-620
[16] = test system: UACC-257
[17] = test system: A549
[18] = test system: HL-60
[19] = test system: SF-268
[20] = test system: SF-539

| Compound | GI50 [1] | GI50 [2] | GI50 [3] | GI50 [4] | GI50 [5] | GI50 [6] | GI50 [7] | GI50 [8] | GI50 [9] | GI50 [10] | GI50 [11] | GI50 [12] | GI50 [13] | GI50 [14] | GI50 [15] | GI50 [16] | GI50 [17] | GI50 [18] | GI50 [19] | GI50 [20] |
| --- | --- | --- | --- | --- | --- | --- | --- | --- | --- | --- | --- | --- | --- | --- | --- | --- | --- | --- | --- | --- |
| Nc1nc(Cl)nc2c1ncn2C1CCC(CO)O1 (stereo not drawn) | > 100 µM (inactive) | > 100 µM (inactive) | > 100 µM (inactive) | > 100 µM | > 100 µM (inactive) | > 100 µM (inactive) | > 100 µM (inactive) | > 100 µM (inactive) | 41.6 µM (inactive) | > 100 µM (inactive) | > 100 µM (inactive) | > 100 µM (inactive) | > 100 µM (inactive) | > 100 µM (inactive) | > 100 µM (inactive) | > 100 µM (inactive) |  |  |  |  |
| Nc1ccc2c(c1)C(=O)N(O)C2=O | > 100 µM (inactive) |  | > 100 µM (inactive) | > 100 µM | > 100 µM (inactive) | > 100 µM (inactive) | > 100 µM (inactive) | > 100 µM (inactive) |  | > 100 µM (inactive) |  | > 100 µM (inactive) | > 100 µM (inactive) | > 100 µM (inactive) | > 100 µM (inactive) | > 100 µM (inactive) | > 100 µM (inactive) | > 100 µM (inactive) | > 100 µM (inactive) | > 100 µM (inactive) |
| NC(Cc1ccc(OCc2ccccc2)cc1)C(=O)NC(Cc1ccccc1)C(=O)Oc1c(Cl)c(Cl)c(Cl)c(Cl)c1Cl (stereo not drawn) | 20.9 µM (inactive) | 14.6 µM (inactive) | 17.5 µM (inactive) | 16.4 µM | 15.3 µM (inactive) | 15.4 µM (inactive) | 14.2 µM (inactive) | 20.9 µM (inactive) | 16.5 µM (inactive) | 15 µM (inactive) | 13.3 µM (inactive) | 14.7 µM (inactive) | 17.7 µM (inactive) | 15.7 µM (inactive) | 16.8 µM (inactive) | 15.9 µM (inactive) | 18.4 µM (inactive) | 69.5 µM (inactive) | 20.3 µM (inactive) | 16.7 µM (inactive) |
| Cc1ccc2c(c1)C(=O)N(N(C)C)CC(=O)N2 | > 100 µM (inactive) | > 100 µM (inactive) | > 100 µM (inactive) | > 100 µM | > 100 µM (inactive) | > 100 µM (inactive) | > 100 µM (inactive) | > 100 µM (inactive) | > 100 µM (inactive) |  | > 100 µM (inactive) | > 100 µM (inactive) | > 100 µM (inactive) | 35.2 µM (inactive) | > 100 µM (inactive) | > 100 µM (inactive) | > 100 µM (inactive) | > 100 µM (inactive) | > 100 µM (inactive) | > 100 µM (inactive) |
| CN(C)CCCNC(=O)N/N=C/c1ccccn1 | > 10 µM (inactive) | > 10 µM (inactive) | > 10 µM (inactive) | > 10 µM | > 10 µM (inactive) | > 10 µM (inactive) | > 10 µM (inactive) | > 10 µM (inactive) | > 10 µM (inactive) | > 10 µM (inactive) |  | > 10 µM (inactive) |  | > 10 µM (inactive) | > 10 µM (inactive) | 9.42 µM (inactive) | > 10 µM (inactive) | > 10 µM (inactive) | > 10 µM (inactive) | > 10 µM (inactive) |
| CC(C)C[C@@H](NC(=O)[C@@H](Cc1cccc2ccccc12)NC(=O)N1CCOCC1)B(O)O | 31 µM (inactive) | 48.4 µM (inactive) | 33.2 µM (inactive) | > 100 µM | > 100 µM (inactive) | > 100 µM (inactive) | 28.2 µM (inactive) |  | > 100 µM (inactive) |  | 37 µM (inactive) |  | > 100 µM (inactive) |  |  | > 100 µM (inactive) | > 100 µM (inactive) | 38.7 µM (inactive) | 61.5 µM (inactive) | 43.4 µM (inactive) |
| O=c1ccc2nc3cc(Br)ccc3sc-2c1 |  | > 100 µM (inactive) | > 100 µM (inactive) | 74.1 µM | > 100 µM (inactive) | > 100 µM (inactive) | > 100 µM (inactive) | > 100 µM (inactive) |  |  | > 100 µM (inactive) | > 100 µM (inactive) | > 100 µM (inactive) | > 100 µM (inactive) | > 100 µM (inactive) | > 100 µM (inactive) | > 100 µM (inactive) | 13.5 µM (inactive) | > 100 µM (inactive) | > 100 µM (inactive) |
| c1ccc2c(c1)SP1Sc3ccccc3P21 (stereo not drawn) | > 100 µM (inactive) | > 100 µM (inactive) | > 80 µM (inactive) | > 100 µM | > 100 µM (inactive) | > 100 µM (inactive) |  | > 100 µM (inactive) | > 89.3 µM (inactive) | 52.7 µM (inactive) | > 80.7 µM (inactive) | > 100 µM (inactive) | > 28.2 µM (inactive) | 61.9 µM (inactive) | > 100 µM (inactive) | > 100 µM (inactive) | > 100 µM (inactive) | > 72.8 µM (inactive) | > 95.3 µM (inactive) | > 100 µM (inactive) |
| COc1ccc(C2CC(c3c(O)ccc4ccccc34)=NN2)cc1OC (stereo not drawn) | 18.5 µM (inactive) | 6.12 µM (inactive) |  | 4.45 µM | 4.43 µM (inactive) | 3.52 µM (inactive) | 4.1 µM (inactive) | 4.02 µM (inactive) | 2.98 µM (inactive) | 7.6 µM (inactive) | 6 µM (inactive) | 7.94 µM (inactive) | 2.1 µM (inactive) | 1.22 µM (inactive) |  | 6.81 µM (inactive) |  | 4.42 µM (inactive) | 2.87 µM (inactive) | 4.27 µM (inactive) |
| [O-][n+]1c2c([n+]([O-])c3ccccc31)-c1cccc3cccc-2c13 | > 100 µM (inactive) | > 100 µM (inactive) | > 100 µM (inactive) | > 100 µM |  | > 100 µM (inactive) | 48.1 µM (inactive) |  | > 100 µM (inactive) | 21.2 µM (inactive) |  |  | > 100 µM (inactive) | 18.4 µM (inactive) | > 100 µM (inactive) | > 100 µM (inactive) | > 100 µM (inactive) | > 100 µM (inactive) | 29 µM (inactive) |  |
| COc1cc2c(cc1OC)CCN=C2 | > 100 µM (inactive) | > 100 µM (inactive) | > 100 µM (inactive) | > 100 µM | > 100 µM (inactive) | > 100 µM (inactive) | > 100 µM (inactive) | > 100 µM (inactive) | > 100 µM (inactive) | 56.6 µM (inactive) | > 100 µM (inactive) | > 100 µM (inactive) | > 100 µM (inactive) | > 100 µM (inactive) | > 100 µM (inactive) | > 100 µM (inactive) |  | > 100 µM (inactive) |  |  |
| COC1CCC(O)C(CO)O1 (stereo not drawn) |  |  | > 100 µM (inactive) | > 100 µM | 22.7 µM (inactive) | > 100 µM (inactive) | 43.2 µM (inactive) | 20.5 µM (inactive) | > 100 µM (inactive) | > 100 µM (inactive) | > 100 µM (inactive) | > 100 µM (inactive) |  | > 100 µM (inactive) | 24.3 µM (inactive) | 37.4 µM (inactive) | > 100 µM (inactive) | 31.7 µM (inactive) |  | 41.2 µM (inactive) |
| CN(C)C(=O)OCOC(=O)N(C)C | > 100 µM (inactive) | > 100 µM (inactive) | > 100 µM (inactive) | > 100 µM | > 100 µM (inactive) | > 100 µM (inactive) |  | > 100 µM (inactive) | > 100 µM (inactive) | > 100 µM (inactive) | > 100 µM (inactive) | > 100 µM (inactive) | > 100 µM (inactive) | > 82.8 µM (inactive) | > 100 µM (inactive) |  | > 100 µM (inactive) | > 31.6 µM (inactive) | > 100 µM (inactive) | > 100 µM (inactive) |
| CC1(C)OC2CC(=O)OCC23C1CC(=O)C1(C)C3CCC2(C)C(c3ccoc3)OC(=O)C3OC321 (stereo not drawn) | > 125 µM (inactive) | > 125 µM (inactive) | > 125 µM (inactive) | > 125 µM | > 125 µM (inactive) | > 125 µM (inactive) |  | 123 µM (inactive) | 11.7 µM (inactive) | > 117 µM (inactive) | > 125 µM (inactive) | > 125 µM (inactive) | > 125 µM (inactive) | 64.7 µM (inactive) | > 125 µM (inactive) | 124 µM (inactive) | > 125 µM (inactive) | 101 µM (inactive) | > 125 µM (inactive) | > 117 µM (inactive) |
| O=C(O)C12CCCC(CCC1)C2 | > 100 µM (inactive) | > 100 µM (inactive) | > 100 µM (inactive) | > 100 µM | > 100 µM (inactive) | > 100 µM (inactive) | > 100 µM (inactive) | > 100 µM (inactive) | > 100 µM (inactive) | > 100 µM (inactive) | > 100 µM (inactive) | > 100 µM (inactive) | > 100 µM (inactive) | > 100 µM (inactive) | > 100 µM (inactive) | > 100 µM (inactive) | > 100 µM (inactive) | > 100 µM (inactive) | > 100 µM (inactive) | > 100 µM (inactive) |
